Residues, ends and D or L forms follow the SMILES beside them. *: point of attachment. Cbz = O=C(OCc1ccccc1)*
Columns and labels:
Type in all cases: in vivo, mouse
[1] = test system: AgRP neurons (hM4Di DREADD); assay: CNO in Agrp-Ires-Cre; Npy-hrGFP mice with rAAV-hM4Di-mCherry (DREADD) in the ARC; details: CNO 1.5 mg/kg/day i.p., 14 days
Description: FIG. 3. TCPTP deletion in AgRP neurons or AgRP neuronal inhibition promotes WAT browning and energy expenditure. a) Body weights, b) body composition, c) energy expenditure, d) daily food intake and e) BAT Ucp-1 gene expression in 18-week-old AgRP-TC and Ptpn2^fl/fl male mice. Inguinal WAT (ingWAT) was extracted from Ptpn2^fl/fl and AgRP-TC male mice and processed for f) histology (hematoxylin and eosin: H&E) and immunohistochemistry, g) quantitative PCR and h) immunoblotting. i) Ptpn2^fl/fl and AgRP-TC and Ptpn2^fl/fl male mice were subjected to ^18F-fluoro-2-deoxy-D-glucose (^18F-FDG) positron emission tomography (PET)-computed tomography (CT). Representative images and ingWAT ^18F-FDG standard uptake values (SUV) and normalised uptake per tissue volume are shown. Ptpn2^fl/fl and AgRP-TC male mice ingWAT depots were bilaterally sham-operated or denervated with 6-ODHA and j) weekly body weights recorded and k) energy expenditure measured. l) Ptpn2^fl/fl, AgRP-TC or AgRP-TC-IR male mice were fasted overnight and administered (intraperitoneal) insulin (0.85 mU/g, 15 min) and brains extracted for ARC p-AKT immunohistochemistry. m) Energy expenditure, n) body weights and o) ingWAT weights in 14-week-old Ptpn2^fl/fl, AgRP-TC or AgRP-TC-IR male mice. p-r) IngWAT and BAT were extracted from Ptpn2^fl/fl, AgRP-TC or AgRP-TC-IR male mice for gene expression analyses or histology/immunohistochemistry. s-t) 10-week-old Npy-hrGFP; Agrp-Ires-Cre mice were bilaterally injected with rAAV-hM4Di-mCherry into the ARC. […] Representative and quantified results (means±SEM) are shown for the indicated number of mice. * for significance between Ptpn2^fl/fl and AgRP-TC mice; # for significance between treated AgRP-TC or AgRP verses AgRP-TC-IR mice.
FIG. 10. […] Representative and quantified results (means±SEM) are shown for the indicated number of mice. […]

[2] = test system: 8-10-week C57BL/6 male mice; assay: Intranasal RU486 or Claramine for 10 consecutive days in 8-10-week C57BL/6 male mice; details: RU486 1, 5, 10 or Claramine 1, 10 and 20 μg/animal/day
Procedure: 8-10-week C57BL/6 male mice were mice received glucocorticoid antagonist (RU486: 1, 5, 10 μg/animal/day; intranasal; 12 μl total volume) and/or PTP1B inhibitor (Claramine: 1, 10 and 20 μg/animal/day, intranasal; 12 μl total volume) for 10 consecutive days and effects on a, f) body weight, b, g) food intake, c, h) adiposity (EchoMRI and fad pad weight) was determined.

[3] = test system: diet-induced obese mice; assay: ICV Claramine for 10 consecutive days in 12-week high fat fed mice; details: ICV 1 and 10 μg/animal/day
Procedure: (§1) FIG. 23. CNS administration of PTP1B inhibitor (Claramine) dose dependently attenuates body weight, adiposity and food intake without regulating energy expenditure in diet-induced obese mice. […] Data were collected into 5 min time bins and are presented as percentage of total behavior. Crossover graphs indicating the point of transition from eating to resting and the dashed line represents the time bin in which groups spent an equivalent amount of time eating and resting and is represented as f) time of cross over.

[4] = test system: diet-induced obese mice; assay: Behavioral satiety sequence after ICV Claramine in overnight fasted high fat fed mice; details: ICV 1 and 10 μg/animal
Procedure: as §1

[5] = test system: TCPTP protein in the MBH; assay: ICV MG132 in fasted (24 h) mice re-fed 4 h; MBH immunoblotting for TCPTP; details: ICV 2 μl 50 μM, 4 h re-feeding
Procedure: The alterations in hypothalamic TCPTP in fed and fasted mice might be a specific response to nutritional signals. To explore this, experiments were performed to determined when the hypothalamic TCPTP levels returned to the pre-fasted state, when 24 h fasted mice were re-fed for 4 h (FIG. 1a). Hypothalamic TCPTP protein, as assessed by immunoblotting MBH homogenates (FIG. 1c), or Ptpn2 expression, as assessed by real time PCR (FIG. 1d), declined to pre-fasted levels in re-fed mice. The decline in TCPTP occurred throughout the ARC (FIG. 8c). The decline in TCPTP was accompanied by increased IR and AKT phosphorylation (FIG. 1e), consistent with the potential enhancement of insulin sensitivity. Since the half-life for TCPTP protein is roughly 16 h (Bukczynska et al., 2004), we reasoned that the decline in TCPTP might reflect increased degradation. The proteasome can influence hypothalamic protein abundance in response to feeding (Sasaki et al., 2010). To test its contribution to TCPTP degradation in re-fed mice, we administered fasted (24 h) mice the proteasome inhibitor MG132 intracerebroventricularly (ICV) and assessed the influence on TCPTP protein in the MBH after 4 h of re-feeding.

[6] = test system: PTP1B levels; assay: ICV MG132 in fasted (24 h) mice re-fed 4 h; MBH immunoblotting for PTP1B; details: ICV 2 μl 50 μM, 4 h re-feeding
[7] = test system: diet-induced obese mice; assay: ICV RU486 for 10 consecutive days in 12-week high fat fed mice; details: ICV 1 μg/animal
Procedure: FIG. 16. […] 12 week high fat fed C57BL/6 male mice were mice were sham or bi-laterally denervated (6-ODHA) to prevent WAT browning and then administered the glucocorticoid antagonist RU486 intracerebroventricularly (ICV; 1 μg/animal), twice daily (9 am & […]) for 10 consecutive days. Effects on body weight and adiposity (EchoMRI and fad pad weight) were determined. WAT browning was assessed by gross morphology.
FIG. 17. A glucocorticoid antagonist promotes WAT browning and increases energy expenditure without any obvious adverse behavioral effects. […] Effects on energy expenditure (indirect calorimetry) and stereotypical behaviors were determined using the Promethion metabolic cage system.
FIG. 22. […] 12-week high fat fed C57BL/6 male mice received glucocorticoid antagonist (RU486: 0.1, 1 and 2 μg/animal/day, ICV) for 10 consecutive days and a) body weights, b) food intake, c) adiposity (EchoMRI and fad pad weight), d) energy expenditure were determined.
Insulin and glucose tolerance tests and blood glucose and plasma insulin were measured as described previously (Dodd et al., 2015 as above; Loh et al., 2009 Cell Metab 10, 260-272). Plasma corticosterone was measured by ELISA (Arbor Assays). […]
Effects on body weight and adiposity (EchoMRI and fat pad weight) were determined. […]
Effects on energy expenditure and stereotypical behaviours were determined using the Promethion metabolic cages system.

[8] = test system: hypothalamic TCPTP (Ptpn2) expression; assay: ICV ghrelin, UDP or dexamethasone (plus or minus RU486) in re-fed mice; hypothalamic TCPTP immunohistochemistry and Ptpn2 real time PCR; details: for TCPTP protein levels (immunohistochemistry): ICV twice over 4 h in fasted and re-fed (4 h) mice
Procedure: Paraformaldehyde-fixed brains were extracted and processed for TCPTP immunohistochemistry. e) 8-week-old fed or 24 h fasted C57BL/6 male mice were administered (intraperitoneal) saline, or leptin (0.5 μg/g body weight, 45 min) and paraformaldehyde-fixed brains extracted for immunohistochemistry monitoring for STAT3 Y705 phosphorylation (p-STAT3) in the central-caudal ARC. f) Tissues from 8-week-old AgRP-TC mice were screened for the presence of the recombined Ptpn2 allele (ΔPtpn2) by PCR (Wiede et al., 2011). g) 8-week-old Ptpn2^fl/fl; Npy-hrGFP or AgRP-TC; Npy-hrGFP mice were perfused with paraformaldehyde and brains extracted and processed for immunohistochemistry monitoring for TCPTP in GFP-positive AgRP/NPY neurons in the central-caudal ARC. Yellow arrows depict TCPTP positive NPY cells, blue arrows depict TCPTP negative NPY cells. h) Brains from 8-week-old fed or 24 h fasted Ptpn2^fl/fl; Npy-hrGFP or AgRP-TC; Npy-hrGFP male mice were paraformaldehyde-fixed and processed for ARC p-AKT immunohistochemistry. i-j) 8-week-old Ptpn2^fl/fl or AgRP-TC male mice were fasted and injected (intraperitoneal) with saline, insulin (0.85 mU/g) or leptin (1 μg/g body weight) and hypothalami extracted 2 h later for quantitative PCR. k) 8-week-old Ptpn2^fl/fl; Npy-hrGFP or AgRP-TC; Npy-hrGFP male mice were fasted overnight and administered vehicle PBS or leptin (0.5 μg/g body weight, intraperitoneal) for 45 min and paraformaldehyde-fixed brains extracted and processed for immunofluorescence microscopy monitoring for p-STAT3 and GFP. l) Plasma insulin levels in 8-10-week-old fed or food restricted (just prior to lights out, 6:30 μm) C57BL/6 male mice.
Under 2% (v/v) isoflurane in 1 l/min oxygen 8-week-old AgRP-TC, Ptpn2^fl/fl or C57BL/6 mice were implanted stereotaxically with guide cannulas into the right lateral ventricle (0.2 mm posterior, 1.0 mm lateral from bregma). […] Mice received a second injection 2 h later and after a further 2 h mice were perfused with paraformaldehyde for immunohistochemical analysis, or hypothalami extracted for quantitative real time PCR.

[9] = test system: 20-week high fat fed C57BL/6 male mice; assay: Intra-ARC infusion of TCPTP inhibitor in 20-week high fat fed mice switched to chow diet; details: intra-ARC 0.5 nmol/day at 0.25 ul/h, mice placed on chow diet (9% fat)
Procedure: FIG. 18. […] 2-weeks post AAV injection mice were placed on chow diet (9% fat) and weekly body weight was monitored. b) 20-week high fat fed (23% fat) C57BL/6 male mice were implanted with bilateral intraARC cannula connected to Alzet osmotic minipumps (Alzet, 1002) and infused with vehicle or TCPTP inhibitor (compound 8 as described herein, 0.5 nmol/day at a rate of 0.25 ul/h). Mice were placed on chow diet (9% fat) and daily body weight was monitored.
2-weeks post AAV injection mice were placed on chow diet (9% fat) and weekly body weight was monitored. b) 20-week high fat fed (23% fat) C57BL/6 male mice were implanted with bilateral intra-ARC cannula connected to Alzet osmotic minipumps (Alzet, 1002) and infused with vehicle or TCPTP inhibitor (compound 8, 0.5 nmol/day at a rate of 0.25 ul/h). Mice were placed on chow diet (9% fat) and daily body weight was monitored.

[10] = test system: ARC PI3K/AKT signaling (p-AKT); assay: Insulin-induced ARC p-AKT (Ser-473) immunohistochemistry in fed or fasted mice; details: insulin 0.85 mU/g i.p., 15 min
Procedure: 4 weeks post rAAV injection mice were administered (intraperitoneal) saline or insulin (0.85 mU/g, 15 min) and paraformaldehyde-fixed brains extracted for ARC p-AKT or GFP (insert) immunohistochemistry. d) Fed or fasted Ptpn2^fl/fl or AgRP-TC male mice were administered (intraperitoneal) saline or insulin (0.85 mU/g, 15 min) and paraformaldehyde-fixed brains extracted for ARC p-AKT immunohistochemistry. e) Fed or fasted Ptpn2^fl/fl versus AgRP-TC male mice on the Npy-hrGFP reporter background processed for c-Fos ARC immunohistochemistry. f) Whole-cell patch clamp recordings of hypothalamic NPY neurons from Ptpn2^fl/fl; Npy-hrGFP versus AgRP-TC; Npy-hrGFP male mice in response to insulin. […] Representative and quantified results (means±SEM) are shown for the indicated number of mice.
Mice were injected intraperitoneally with either vehicle, leptin (0.5-1.0 μg/g; Peprotech, Rehovot, Israel) for p-STAT-3 (Y705) or human insulin (0.85 mU/g, SIGMA, St Louis, Mo.) for p-AKT (Ser-473). Mice were transcardically perfused either 15 min (for p-AKT staining) or 45 min (for p-STAT3 staining) post-injection with a solution of 4% w/v (for p-AKT staining) paraformaldehyde. The brains were post-fixed overnight and then kept for two days in 30% (w/v) sucrose in 0.1 M phosphate buffer to cryoprotect the tissue, before freezing on dry ice. […]

C[N+]1([O-])CCN(C2=Nc3cc(Cl)ccc3Nc3ccccc32)CC1 [CNO, clozapine-N-oxide]
body weights [1]: decreased | food intake [1]: decreased | WAT browning ([1]; sham-operated vs 6-OHDA denervated inguinal fat pads): marked WAT browning in the sham-operated, but not in the contralateral 6-OHDA denervated inguinal fat pads

CC(C)CCC[C@@H](C)[C@H]1CC[C@H]2[C@@H]3C[C@@H](NCCCNCCCCNCCCN)C4C[C@@H](O)CC[C@]4(C)[C@H]3CC[C@]12C (stereo partly drawn) [Claramine, (3β3,6β3)-6-[[3-[[4-[(3-Aminopropyl)amino]butyl]amino]propyl]amino]-cholestan-3-ol]
adaptive thermogenesis [2]: dose dependent effect | adiposity [2]: dose dependent effect | body weight [2]: dose dependent effect | food intake [2]: dose dependent effect | adiposity (EchoMRI and fad pad weight) [3]: dose dependent attenuation | body weights [3]: dose dependent attenuation | food intake [3]: dose dependent attenuation | adverse side effects as cause of reduced food intake [4]: not by adverse side effects such as sedation or nausea | behavioral satiety sequence ([4]; overnight fasted, presented with food): dose dependent shift

CC(C)C[C@@H](C=O)NC(=O)[C@H](CC(C)C)NC(=O)[C@H](CC(C)C)NC(=O)OCc1ccccc1 [MG132] (Cbz-Leu-Leu-Leu-aldehyde)
feeding-induced degradation of TCPTP [5]: completely prevented | PTP1B levels [6]: without affecting

CC#C[C@]1(O)CC[C@H]2[C@@H]3CCC4=CC(=O)CCC4=C3[C@@H](c3ccc(N(C)C)cc3)C[C@@]21C [RU486, 17-beta-hydroxy-11-beta-(4-dimethyl-aminophenyl)-17-alpha(1-propynyl)-estra-4,9-dien-3-one]
adverse behaviours [7]: not accompanied by adverse behaviours such as inactivity, hyperactivity or sedation

O=c1ccn([C@@H]2O[C@H](COP(=O)(O)OP(=O)(O)O)[C@@H](O)[C@H]2O)c(=O)[nH]1 [UDP, uridine 5′-diphosphate]
TCPTP protein levels (immunohistochemistry) [8]: Neither ghrelin nor UDP overtly altered

CCc1ccc(C(=O)NCCCCC(NC(=O)C(Cc2ccc(C(F)(F)P(=O)(O)O)cc2)NC(=O)C(Cc2ccccc2)NC(=O)COC2CC(C)CCC2C(C)C)C(N)=O)cc1 (stereo not drawn) [compound 8]
diet-induced weight loss (daily body weight) [9]: enhances diet-induced weight loss

ghrelin
TCPTP protein levels (immunohistochemistry) [8]: Neither ghrelin nor UDP overtly altered | increase in Ptpn2 message ([8]; ICV twice over 4 h in re-fed mice, real time PCR): ~3 fold

insulin: human insulin (SIGMA)
ARC p-AKT in response to insulin ([10]; 24 h fasted C57BL6 mice): only modestly increased | induction of ARC p-AKT in response to insulin ([10]; fed C57BL6 mice): 3-4 fold

— patent US11273166B2, “Methods and compositions for the treatment of obesity” (Monash University, priority 2017, dated 2022)
